Some test systems named below: SN12C renal; SK-OV-3 ovarian; RXF 393 renal; NCI-H522 lung; ACHN renal; MOLT-4 leukemia; SR leukemia; SF-295 CNS; HT29 colon; MDA-MB-435.
What all share (experiment): inhibition of tumour cell growth, NCI panel, 48 h

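The compound was tested at five concentrations on cells cultured in 96-well plates, with a 48-hour exposure period. TGI is the concentration that stops growth completely.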 Bounds are passed on as bounds.

`C/C=C(/I)CBr`: the TGI in the experiment on SN12C renal was 34.1 µM; in the experiment on SK-OV-3 ovarian, 64.7 µM; in the experiment with RXF 393 renal it was 31.2 µM; in the experiment on NCI-H522 lung, 4.35 µM; in the experiment on ACHN renal it was 45.5 µM; in the experiment with MOLT-4 leukemia it was 55.9 µM.
Take `[N-]=[N+]=NC(c1cn(C2CC(O)C(CO)O2)c(=O)[nH]c1=O)C(Br)Br` (stereo not drawn): the TGI with SN12C renal, in the experiment on SK-OV-3 ovarian, in the experiment with SR leukemia, in the experiment on SF-295 CNS, in the experiment with HT29 colon and in the experiment on RXF 393 renal was greater than 100 µM each time. The TGI with NCI-H522 lung, in the experiment with ACHN renal and in the experiment on MOLT-4 leukemia was greater than 100 µM in each case.
`O=C(/C=C/c1ccccc1)CSc1ncn[nH]1`: the TGI with SN12C renal, in the experiment with SK-OV-3 ovarian, in the experiment on SR leukemia, with SF-295 CNS, in the experiment on HT29 colon and in the experiment on RXF 393 renal was greater than 100 µM throughout. Further, the TGI with NCI-H522 lung, in the experiment with ACHN renal and with MOLT-4 leukemia was greater than 100 µM each time.
As for `CCOc1ccc2[nH]c3c(C)c4ccncc4c(C)c3c2c1`, the TGI came to 1.93 µM with SN12C renal; 16.4 µM in the experiment on SK-OV-3 ovarian; 2.19 µM in the experiment with SF-295 CNS; 2.18 µM with HT29 colon; 2.77 µM with NCI-H522 lung; 2.25 µM in the experiment on ACHN renal.
With `Brc1ccc(C[P+]2(c3ccccc3)CCCCC2)cc1`, the TGI with SN12C renal, with SK-OV-3 ovarian, in the experiment on SR leukemia, in the experiment with SF-295 CNS, with HT29 colon and with RXF 393 renal was greater than 100 µM in each case. Further, the TGI in the experiment on NCI-H522 lung, in the experiment on ACHN renal and in the experiment with MOLT-4 leukemia was greater than 100 µM in each case.
On to `COc1ccc(C(=O)O[C@H]2[C@@H]3C=CO[C@@H](OC4OC(CO)C(O)C(O)C4O)[C@@H]3[C@@]3(CO)O[C@@H]23)cc1O` (stereo partly drawn), for which the TGI in the experiment with SN12C renal, in the experiment on SK-OV-3 ovarian, in the experiment on SF-295 CNS, in the experiment with HT29 colon, in the experiment with RXF 393 renal and in the experiment on NCI-H522 lung was greater than 100 µM throughout. For the same molecule, the TGI in the experiment with ACHN renal and in the experiment with MOLT-4 leukemia was greater than 100 µM each time.
On to `NC(=S)/N=C(/c1nc2ccc(Cl)cc2[nH]c1=O)C(O)c1ccccc1Cl` (stereo not drawn), for which the TGI with SK-OV-3 ovarian, in the experiment on SF-295 CNS, with HT29 colon, in the experiment with RXF 393 renal, in the experiment on NCI-H522 lung and in the experiment on ACHN renal was greater than 100 µM each time. The molecule further yielded a TGI in the experiment with MOLT-4 leukemia greater than 100 µM.
`CN(C(=O)C12C3C4C5C3C1(C(=O)C13C6C7C8C6C1C8C73)C5C42)C(C)(C)C` (stereo not drawn): the TGI in the experiment on SN12C renal, in the experiment on SK-OV-3 ovarian, in the experiment on SR leukemia, with SF-295 CNS, in the experiment with HT29 colon and in the experiment with RXF 393 renal was greater than 50 µM each time. For the same molecule, the TGI in the experiment on NCI-H522 lung, with ACHN renal and in the experiment with MOLT-4 leukemia was greater than 50 µM each time.
`[N-]=[N+]=NC1OC(=O)C(Cl)=C1N=P(c1ccccc1)(c1ccccc1)c1ccccc1` (stereo not drawn): the TGI in the experiment with SN12C renal, in the experiment with SK-OV-3 ovarian, with SF-295 CNS, with MDA-MB-435, in the experiment on RXF 393 renal and in the experiment on NCI-H522 lung was greater than 10 µM throughout. Besides, the figures for the TGI in the experiment with ACHN renal and with MOLT-4 leukemia were greater than 10 µM and 8.72 µM, respectively.
As to `COc1ccc(N=NC(C(=O)c2ccccc2)C(=O)c2ccccc2)cc1`, the TGI with SN12C renal is 78.8 µM; in the experiment on SK-OV-3 ovarian, 96 µM; in the experiment on SF-295 CNS, greater than 100 µM; in the experiment on HT29 colon, 74 µM; in the experiment with NCI-H522 lung it was 45 µM; in the experiment with ACHN renal, 86.1 µM. The TGI in the experiment on MOLT-4 leukemia is 72.2 µM.
Turning to `COC(=O)/C=C(C)/C=C/C1OC(C)OCC1O` (stereo not drawn), the TGI in the experiment with SN12C renal, with SK-OV-3 ovarian, with SF-295 CNS, in the experiment with HT29 colon, in the experiment on NCI-H522 lung and with ACHN renal was greater than 100 µM throughout. In the experiment with MOLT-4 leukemia, this molecule returned a TGI greater than 100 µM.
As for `Cc1c2ccncc2cc2c1[nH]c1ccccc12`, the TGI amounted to 9.12 µM in the experiment with SN12C renal; 26.1 µM in the experiment on SK-OV-3 ovarian; 16.9 µM with SF-295 CNS; 31.5 µM in the experiment with HT29 colon; 7.35 µM in the experiment on RXF 393 renal; 18.9 µM with NCI-H522 lung. The same molecule registered a TGI in the experiment on MOLT-4 leukemia of 6.59 µM.
For `CCOC(=O)C(=O)Nc1ccccc1C`, the TGI with SN12C renal, in the experiment with SK-OV-3 ovarian, in the experiment with RXF 393 renal, in the experiment with NCI-H522 lung, in the experiment with ACHN renal and with MOLT-4 leukemia was greater than 100 µM each time.
On to `CS(=O)(=O)c1nc(-c2cc3c(c(S(C)(=O)=O)n2)CCCC3)cc2c1CCCCC2`, for which the TGI in the experiment with SN12C renal, in the experiment with SK-OV-3 ovarian, in the experiment on SF-295 CNS, in the experiment on HT29 colon, in the experiment with MDA-MB-435 and in the experiment with RXF 393 renal was greater than 100 µM in each case. The TGI in the experiment with NCI-H522 lung and in the experiment with ACHN renal was greater than 100 µM in each case.
As to `N#CN/C(N)=N/C/N=C(\N)NC#N`, the TGI with SN12C renal was greater than 100 µM; in the experiment with SK-OV-3 ovarian it was greater than 100 µM; in the experiment with SR leukemia, 93.5 µM; in the experiment on SF-295 CNS, greater than 100 µM; in the experiment with HT29 colon, greater than 100 µM; in the experiment with RXF 393 renal it was greater than 100 µM. The TGI in the experiment with NCI-H522 lung, in the experiment on ACHN renal and in the experiment on MOLT-4 leukemia was greater than 100 µM each time.
Take `CCN(CC)CCCNc1ccc2nc(C)n3c4ccc(O)cc4c(=O)c1c23`: the TGI with SN12C renal is 18.7 µM; in the experiment on SK-OV-3 ovarian, 25.2 µM; in the experiment on SF-295 CNS, 19.6 µM; in the experiment on HT29 colon, 14.2 µM; in the experiment with MDA-MB-435 it was 22 µM; with RXF 393 renal it was 15 µM. Besides, the TGI with NCI-H522 lung stood at 14.3 µM; with ACHN renal, 15.2 µM; with MOLT-4 leukemia, 17 µM.
As for `NC1=C(NC(=O)Cc2ccccc2F)C(=O)c2ccccc2C1=O`, the TGI with SN12C renal is greater than 100 µM; in the experiment with SF-295 CNS, greater than 100 µM; in the experiment on HT29 colon, greater than 100 µM; with RXF 393 renal, 56.5 µM; in the experiment on NCI-H522 lung it was greater than 100 µM; in the experiment with ACHN renal, greater than 100 µM. For the same molecule, the TGI with MOLT-4 leukemia was greater than 100 µM.
Consider `O=C(/C=C/c1ccc(-c2ccccc2)cc1)NCc1ccc(C(=O)NCc2ccccc2)cc1`, for which the TGI in the experiment with SN12C renal is greater than 100 µM; in the experiment with SK-OV-3 ovarian, greater than 100 µM; in the experiment with SF-295 CNS, greater than 100 µM; in the experiment with HT29 colon it was greater than 100 µM; with MDA-MB-435, greater than 100 µM; in the experiment on RXF 393 renal, 67.3 µM. In addition, the TGI in the experiment with NCI-H522 lung and with ACHN renal was greater than 100 µM throughout.
Regarding `CC1=Nc2c(ccc3c2C(=O)c2ccccc2C3=O)NC(c2cccc3c2CCC3)C1` (stereo not drawn), the TGI with SN12C renal, with SK-OV-3 ovarian, in the experiment with SR leukemia, in the experiment on SF-295 CNS, in the experiment on HT29 colon and in the experiment with RXF 393 renal was greater than 100 µM each time. The TGI in the experiment with NCI-H522 lung, in the experiment on ACHN renal and in the experiment with MOLT-4 leukemia was greater than 100 µM each time.
Consider `CC1=NC2=Nc3nc(C)cc[n+]3CN2C=C1`, for which the TGI with SN12C renal, with SK-OV-3 ovarian, with SF-295 CNS, in the experiment with HT29 colon, in the experiment with MDA-MB-435 and in the experiment on RXF 393 renal was greater than 100 µM throughout. Besides, the TGI in the experiment with NCI-H522 lung and with ACHN renal was greater than 100 µM throughout.
As to `CC(NC(=O)NC(C)(C)C)NC(=O)C(N)CC(=O)O` (stereo not drawn), the TGI with SN12C renal, in the experiment with SK-OV-3 ovarian, with SF-295 CNS, in the experiment with HT29 colon, in the experiment on MDA-MB-435 and in the experiment with RXF 393 renal was greater than 100 µM in each case. The TGI in the experiment with NCI-H522 lung, with ACHN renal and with MOLT-4 leukemia was greater than 100 µM in each case.
As for `CC(=O)OCC1OC(n2cc(F)c(=O)[nH]c2=O)C(NC(=O)OCc2ccccc2)C(OC(C)=O)C1OC(C)=O` (stereo not drawn), the TGI with SN12C renal, in the experiment on SK-OV-3 ovarian, in the experiment with SF-295 CNS, in the experiment on HT29 colon, in the experiment on RXF 393 renal and in the experiment with NCI-H522 lung was greater than 100 µM throughout. The molecule further came in with a TGI in the experiment with MOLT-4 leukemia greater than 100 µM.
Take `O=S(=O)(O)c1cc(N=Nc2c(O)ccc3ccccc23)ccc1/C=C/c1ccc(N=Nc2c(O)ccc3ccccc23)cc1S(=O)(=O)O`: the TGI in the experiment with SN12C renal, in the experiment on SK-OV-3 ovarian, in the experiment with SF-295 CNS, in the experiment on HT29 colon, with MDA-MB-435 and in the experiment on RXF 393 renal was greater than 100 µM throughout. Also, the TGI in the experiment with NCI-H522 lung and in the experiment on ACHN renal was greater than 100 µM in each case.
Take `CC1=C(C(=O)CC(=O)C(=O)Nc2cc(C)ccc2C)Sc2ccccc2N1`: the TGI in the experiment on SN12C renal, with SK-OV-3 ovarian, with SF-295 CNS, with HT29 colon, in the experiment on RXF 393 renal and in the experiment with NCI-H522 lung was greater than 100 µM in each case. Further, the TGI with ACHN renal and with MOLT-4 leukemia was greater than 100 µM each time.
